Among the data in ChEMBL document CHEMBL3091341, “Chlorophenylpiperazine analogues as high affinity dopamine transporter ligands” (Bioorg Med Chem Lett, 2013) are Ki and Ratio Ki values, retold here.

Each structure is given as a SMILES string.

For assay [1], the target named is 5-hydroxytryptamine receptor 2A (Rattus norvegicus, UniProt P14842). Briefly: Displacement of [3H]ketanserin from 5-HT2 receptor in rat brain after 120 mins by liquid scintillation counting analysis. The format is tissue-based. In general terms: In a radioligand displacement assay an active substance lowers the binding of a labelled ligand.
Assay [2] concerns the target Sodium-dependent serotonin transporter (Rattus norvegicus, UniProt P31652). As to the kind of experiment: Displacement of [3H]paroxetine from serotonin transporter in rat brainstem after 120 mins by liquid scintillation counting analysis. Type of assay: tissue-based.
For assay [3], the target named is Sodium-dependent dopamine transporter (Rattus norvegicus, UniProt P23977). Briefly: Displacement of [3H]WIN 35428 from dopamine transporter in rat striatum after 120 mins by liquid scintillation counting analysis.
Assay [4] in a line: Binding affinity to rat opioid receptor after 120 mins by radioligand displacement assay.
Assay [5] can be described thus: Displacement of [3H]di-o-tolylguanidine from sigma2 receptor in rat brain after 120 mins by liquid scintillation counting analysis. Type of assay: tissue-based.
Assay [6] is filed under the species Rattus norvegicus. As to the kind of experiment: Selectivity ratio of Ki for rat brain sigma1 receptor to Ki for rat striatum dopamine transporter. The format is tissue-based.
Another assay has as its target D(2) dopamine receptor (Rattus norvegicus, UniProt P61169). As to the kind of experiment: Displacement of [3H](-)-sulpiride from dopamine D2 receptor in rat brain after 120 mins by liquid scintillation counting analysis. Type of assay: tissue-based.
A short description of assay [7]: Displacement of [3H]TCP from N-methyl D-aspartate receptor phencyclidine binding site in rat brain after 120 mins by liquid scintillation counting analysis. The format is tissue-based.
Assay [8] is filed under the species Rattus norvegicus. Briefly: Selectivity ratio of Ki for rat brain sigma1 receptor to Ki for rat brain sigma2 receptor.
Assay [9] concerns the target Sigma non-opioid intracellular receptor 1 (Rattus norvegicus, UniProt Q9R0C9). Briefly: Displacement of [3H](+)-pentazocine from sigma1 receptor in rat brain after 120 mins by liquid scintillation counting analysis. The format is tissue-based.
The nature of assay [10]: Displacement of [3H]nisoxetine from norepinephrine transporter in rat cerebral cortex after 120 mins by liquid scintillation counting analysis. Type of assay: tissue-based.

Sequence of 5-hydroxytryptamine receptor 2A (P14842 whole entry): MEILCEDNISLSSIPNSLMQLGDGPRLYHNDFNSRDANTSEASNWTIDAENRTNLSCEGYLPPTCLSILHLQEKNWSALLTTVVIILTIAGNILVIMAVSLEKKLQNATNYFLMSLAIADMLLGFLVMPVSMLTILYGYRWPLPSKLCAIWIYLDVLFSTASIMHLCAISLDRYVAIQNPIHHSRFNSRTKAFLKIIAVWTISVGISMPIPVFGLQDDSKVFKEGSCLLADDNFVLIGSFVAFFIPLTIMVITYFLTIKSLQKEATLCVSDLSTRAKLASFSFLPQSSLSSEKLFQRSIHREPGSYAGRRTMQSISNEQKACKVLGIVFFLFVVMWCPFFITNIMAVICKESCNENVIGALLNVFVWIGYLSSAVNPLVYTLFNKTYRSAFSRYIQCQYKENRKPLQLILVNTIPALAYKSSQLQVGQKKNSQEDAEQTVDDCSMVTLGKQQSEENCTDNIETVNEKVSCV
Sequence of Sodium-dependent serotonin transporter (P31652 whole entry): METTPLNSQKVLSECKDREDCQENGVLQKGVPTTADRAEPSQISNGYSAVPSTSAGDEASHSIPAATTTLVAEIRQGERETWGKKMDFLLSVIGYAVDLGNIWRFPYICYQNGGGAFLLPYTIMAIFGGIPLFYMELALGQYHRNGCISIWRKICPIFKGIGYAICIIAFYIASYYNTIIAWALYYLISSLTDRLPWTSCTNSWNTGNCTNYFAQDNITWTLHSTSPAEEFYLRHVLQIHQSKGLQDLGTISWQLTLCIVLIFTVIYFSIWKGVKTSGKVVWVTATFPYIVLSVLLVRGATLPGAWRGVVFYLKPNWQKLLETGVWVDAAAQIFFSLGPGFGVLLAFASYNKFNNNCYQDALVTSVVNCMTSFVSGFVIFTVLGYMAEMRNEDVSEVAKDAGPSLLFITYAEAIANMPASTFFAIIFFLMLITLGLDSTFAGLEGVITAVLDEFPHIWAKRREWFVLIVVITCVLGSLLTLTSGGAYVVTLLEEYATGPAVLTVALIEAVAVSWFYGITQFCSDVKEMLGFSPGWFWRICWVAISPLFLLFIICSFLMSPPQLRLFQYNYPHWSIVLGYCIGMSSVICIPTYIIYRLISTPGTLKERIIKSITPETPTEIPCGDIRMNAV
Sequence of D(2) dopamine receptor (P61169 whole entry): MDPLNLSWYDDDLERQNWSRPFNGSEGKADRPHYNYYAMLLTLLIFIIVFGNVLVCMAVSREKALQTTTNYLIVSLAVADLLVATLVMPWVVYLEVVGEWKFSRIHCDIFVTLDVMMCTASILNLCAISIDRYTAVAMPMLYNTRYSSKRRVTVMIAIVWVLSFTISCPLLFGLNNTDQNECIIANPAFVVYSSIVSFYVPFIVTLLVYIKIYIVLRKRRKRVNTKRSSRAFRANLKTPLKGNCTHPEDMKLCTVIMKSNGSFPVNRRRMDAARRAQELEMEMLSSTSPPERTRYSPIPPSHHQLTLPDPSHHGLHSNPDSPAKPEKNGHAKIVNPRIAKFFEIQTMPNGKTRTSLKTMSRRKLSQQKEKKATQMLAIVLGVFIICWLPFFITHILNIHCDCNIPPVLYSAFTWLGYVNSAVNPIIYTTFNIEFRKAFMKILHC
Sequence of Sodium-dependent dopamine transporter (P23977 whole entry): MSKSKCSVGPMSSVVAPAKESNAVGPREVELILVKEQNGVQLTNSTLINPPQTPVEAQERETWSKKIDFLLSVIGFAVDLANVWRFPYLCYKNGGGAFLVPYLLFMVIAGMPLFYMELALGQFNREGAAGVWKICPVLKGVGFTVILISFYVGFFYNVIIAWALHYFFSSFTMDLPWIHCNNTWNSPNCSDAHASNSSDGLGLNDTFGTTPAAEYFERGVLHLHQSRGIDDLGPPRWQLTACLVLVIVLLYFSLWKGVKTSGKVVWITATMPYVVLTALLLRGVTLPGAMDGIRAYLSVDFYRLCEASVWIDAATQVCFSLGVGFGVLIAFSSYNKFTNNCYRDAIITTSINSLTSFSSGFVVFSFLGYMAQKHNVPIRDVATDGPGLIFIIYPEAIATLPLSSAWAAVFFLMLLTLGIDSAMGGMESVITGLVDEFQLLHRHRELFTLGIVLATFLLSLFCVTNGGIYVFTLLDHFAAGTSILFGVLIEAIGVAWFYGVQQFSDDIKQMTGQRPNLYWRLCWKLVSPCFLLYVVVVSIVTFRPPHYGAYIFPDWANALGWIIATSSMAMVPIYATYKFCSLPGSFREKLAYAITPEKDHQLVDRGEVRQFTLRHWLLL
Sequence of Sigma non-opioid intracellular receptor 1 (Q9R0C9 whole entry): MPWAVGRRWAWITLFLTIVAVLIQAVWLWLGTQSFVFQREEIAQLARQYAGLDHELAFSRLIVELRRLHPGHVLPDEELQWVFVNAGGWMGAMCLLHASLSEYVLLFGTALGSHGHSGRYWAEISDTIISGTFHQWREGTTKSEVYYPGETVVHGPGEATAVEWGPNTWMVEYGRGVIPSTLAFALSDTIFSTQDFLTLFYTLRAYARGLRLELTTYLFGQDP

For orientation: Ki means a dissociation constant, usually derived from enzyme kinetics or from competition with a known ligand. Consider `Clc1ccc(N2CCN(CCc3ccccc3)CC2)cc1`, for which the Ki in [1] is 518 nM; in assay [2], 372 nM; in assay [3], 6 nM; in [4], above 10000 nM; in [5], 33.3 nM; on D(2) dopamine receptor, 834 nM. Besides, the figures for the Ki in assay [7], in assay [9] and in assay [10] were above 10000 nM, 1.85 nM and above 10000 nM, respectively. The values for the Ratio Ki in the assay listed under Rattus norvegicus [6] and in the assay listed under Rattus norvegicus [8] were 0.31 and 0.056, respectively.
As for `c1ccc(CCCN2CCN(c3ccccn3)CC2)cc1`, the Ki in assay [1] was 1240 nM; in assay [2] it was above 10000 nM; in assay [3] it was 9150 nM; in assay [4], above 10000 nM; in [5], 4.9 nM; at D(2) dopamine receptor it was 940 nM. The Ki in [7] and in assay [10] was above 10000 nM in each case. Further, the Ratio Ki in the assay filed under Rattus norvegicus [6] was found to be 0.009; in the assay filed under Rattus norvegicus [8], 16.7.
As to `Clc1ccccc1N1CCN(CCCc2ccccc2)CC1`, the Ki in assay [1] came to 952 nM; in assay [2] it was 409 nM; in assay [3], 482 nM; in assay [4] it was 4600 nM; in assay [5], 7.79 nM; on D(2) dopamine receptor, 77 nM. Moreover, the Ki in [7] is above 10000 nM; in assay [9] it was 0.56 nM; in assay [10], above 10000 nM. For the same compound, the results for the Ratio Ki in the assay filed under Rattus norvegicus [6] and in the assay listed under Rattus norvegicus [8] were 0.0012 and 0.072, respectively.
Take `Clc1ccccc1N1CCN(CCc2ccccc2)CC1`: the Ki in assay [1] was 484 nM; in assay [2], above 10000 nM; in assay [3], 0.13 nM; in assay [4], 4830 nM; in assay [5], 56.3 nM; on D(2) dopamine receptor, 67 nM. The Ki is above 10000 nM in [7], 0.15 nM in assay [9] and 790 nM in assay [10]. Besides, the Ratio Ki in the assay filed under Rattus norvegicus [6] turned out to be 1.15; in the assay filed under Rattus norvegicus [8] it was 0.003.
Regarding `Clc1cccc(N2CCN(CCCc3ccccc3)CC2)c1`, the Ki in [1] was 498 nM; in assay [2], 488 nM; in assay [3], above 10000 nM; in assay [4], above 10000 nM; in assay [5] it was 12.6 nM; on D(2) dopamine receptor, 128 nM. Also, the values for the Ki in [7], in assay [9] and in assay [10] were above 10000 nM, 4.93 nM and above 10000 nM, respectively. In addition, the Ratio Ki in the assay listed under Rattus norvegicus [8] came out at 0.39.
With `Clc1ccc(N2CCN(CCCc3ccccc3)CC2)cc1`, the Ki in [1] is 391 nM; in assay [2], 1100 nM; in assay [3] it was 2650 nM; in [4], above 10000 nM; in assay [5] it was 10.9 nM; on D(2) dopamine receptor, 660 nM. Besides, the Ki is above 10000 nM in assay [7], 0.12 nM in assay [9] and above 10000 nM in assay [10]. Also, the Ratio Ki in the assay filed under Rattus norvegicus [6] came to 4.5e-05; in the assay listed under Rattus norvegicus [8] it was 0.011.
For the compound `Clc1cccc(N2CCN(CCc3ccccc3)CC2)c1`, the Ki was 53 nM in assay [1]; 802 nM in [2]; 0.04 nM in assay [3]; above 10000 nM in [4]; 82.3 nM in [5]; 327 nM on D(2) dopamine receptor. Moreover, the Ki is above 10000 nM in [7], 6.47 nM in assay [9] and 1110 nM in assay [10]. Further, the Ratio Ki in the assay filed under Rattus norvegicus [6] was 162; in the assay filed under Rattus norvegicus [8], 0.079.
